A melting point compilation (Tetko et al.; mined from patent text by program, amines drawn as free bases though some values may be those of a salt)

SMILES | melting point [°C]
Nc1nccc(OCc2ccccc2)c1[N+](=O)[O-] | 145 to 147
CSc1c(CC(=O)O)cc(C)c2c3ccccc3n(Cc3ccccc3)c12 | 219 to 220
O=c1c2c(c3cccnc3n1-c1ccccc1)OC(CO)C2 (stereo unspecified) | 267 to 268
COc1ccc(S(=O)(=O)Nc2ccccc2NC(=O)c2cccnc2Cl)cc1 | 133 to 135
Oc1ccc(CCN2CCC(=C3c4sccc4CCn4ccnc43)CC2)cc1 | > 200
CCCCN(CCCCCCCCSc1nc(-c2ccccc2)c(-c2ccccc2)[nH]1)C(=O)Nc1ccc(F)cc1F | 114 to 115
CCC12CCC3C4CCC(=O)C=C4CCC3C1CCC2=O (stereo unspecified) | 156 to 158
C=CCN1CCCC1CNC(=O)c1cc(S(=O)(=O)NC)cc2c1OCCO2 (stereo unspecified) | 101 to 102
Cn1nc(-c2ccccc2)c2ccc(Cl)nc21 | 94 to 96
CC1(C)Oc2c(c(Cl)cc(Cl)c2-n2c(=O)cc(C(F)(F)F)[nH]c2=O)C1=O | 308 to 320
OC(CN1CCC(c2noc3cc(F)ccc23)CC1)CN1CCc2ccccc2C1 (stereo unspecified) | 179 to 181
NNC1=NS(=O)(=O)c2cnccc2N1 | 290 to 292
CS(=O)c1ccc(-n2cnc3ccc(-c4nnc(CCc5cccc(C(F)(F)F)c5)o4)cc32)cc1 (stereo unspecified) | 169 to 170
Cc1cnc(N)cc1C(c1cc(F)ccc1F)S(=O)(=O)c1ccc(Cl)cc1 (stereo unspecified) | 188 to 189
O=C(Nc1nccs1)c1nc(-c2cccc3ccccc23)[nH]c1-c1ccc(CO)cc1 | 226 to 228
O=C1NS(=O)(=O)c2cc(O)cc(O)c21 | 286
O=C(c1ccccc1)N1CCCC(c2ccc(Cl)cc2)=N1 | 117 to 118
CN1CC(CCCCN2CCN(c3ccccc3)CC2)OC1=O (stereo unspecified) | 85 to 88
CCOP(=O)(OCC)C1C(=O)NC(=O)N1C (stereo unspecified) | 95 to 96
CC(=O)c1nn(-c2c(Cl)cc(C(F)(F)F)cc2Cl)cc1SC(F)(F)F | 89 to 91
FC(Sc1nnc(-c2ccc(Cl)cc2)s1)=C(F)C(F)(F)F | 69 to 70
CCCCCCCC(=O)NCCCCCOS(C)(=O)=O | 67 to 68
OC(CCCN1CCN(c2noc3ccccc23)CC1)c1ccc(F)cc1 (stereo unspecified) | 142 to 144
O=C(O)[C@H](CCc1ccccc1)Oc1ccc(-c2ccco2)cc1 | 140 to 142
O=C(O)[C@@H](CC(=O)N1CCN(CC(F)(F)F)CC1)Cc1ccccc1 | 96 to 98
CN1C(=O)C(Cc2ccccc2)(c2ccccc2O)c2ccccc21 (stereo unspecified) | 188 to 190
CC(C)c1cc(O)cc2c1C(=O)N(CSc1ccccc1)S2(=O)=O | 127 to 130
CNC(=O)c1cc2ccc3c(c2c(-c2ccc4c(c2)OCO4)c1CO)OCO3 | 233 to 235

SMILES | melting point [°C]
O=C(Nc1cc(Cl)cc(Cl)c1)Nc1ccc(Br)cc1-c1nnn[nH]1 | 263 to 264
CNC(=O)NCCN1CCC(Nc2nc3ccccc3n2Cc2cnc(C)o2)CC1 | 203
Oc1ccc(Oc2ccc(I)cn2)cc1 | 110
CC[C@H]1COC(=O)N1c1nc(-c2ccc(C#N)cc2)c(C#N)s1 | 201 to 203
Cc1noc([C@@H](Cc2ccccc2)NC(=O)[C@@H](Cc2ccc3ccccc3c2)NC(=O)[C@@H]2CCCN(C(=O)OC(C)(C)C)C2)n1 | 198 to 200
CCCCCCCCCCOc1cc(OCCCOc2ccc(OCc3ccccc3)cc2)cc(C(=O)O)c1 | 107 to 109
Cc1nnnn1CCCC(=O)O | 71 to 72.5
CCc1cc(OCc2ccc(-c3ccccc3-c3nnn(C(c4ccccc4)(c4ccccc4)c4ccccc4)n3)cc2)c2c(n1)CCCCC2 | 147 to 148
O=C(NCCC(=O)N1CCCCC1)c1ccc(-c2ccc3nnn(Cc4ccc5ncccc5c4)c3n2)cc1F | 109 to 111
O=C(N[C@H]1CCC(=O)N2CCC[C@@H](C(=O)O)N2C1=O)OCc1ccccc1 | 60 to 100
CC(C)(C)c1nc2cc3c(cc2[nH]1)NC(=O)C3(C)C | > 300
Cc1nccc2c1[nH]c1cc(O)ccc12 | 248
Cc1csc(N2C(=O)C(Cc3ccccc3)NC2=S)n1 (stereo unspecified) | 169 to 171
Cc1nn(-c2c(Cl)cc(C(F)(F)F)cc2Cl)nc1CN(C)C | 67 to 68
CCc1cc2c(cc(C(N)=O)c(=O)n2Cc2ccc(-c3ccccc3-c3nnn(C(c4ccccc4)(c4ccccc4)c4ccccc4)n3)cc2)c(CC)n1 | 162 to 165
O=C1C2=C(SCCN2)C2CSCCN12 (stereo unspecified) | 142
NS(=O)(=O)c1ccc(N2CN(c3cccc(Cl)c3)CC2=O)c(Cl)c1 | 208 to 216
Clc1cccc(Cl)c1-c1nsnc1OCCBr | 60 to 61
CCCCCCC(O)CCCCCCCCCCC(=O)NCC(O)CNCCO (stereo unspecified) | 97.7 to 99.6
Cc1cccc2[nH]c(S(=O)Cc3cccn4ccnc34)nc12 (stereo unspecified) | 166 to 168
CNc1ccnc2c1c(=O)n(C)c(=O)n2C | 179 to 180
O=S1(=O)CCC(c2ccc(N3CCN(CC(O)(Cn4cncn4)c4ccc(F)cc4F)CC3)cc2)CN1 (stereo unspecified) | 165 to 167
COc1ccc2[nH]cc(CC(C)(C)N)c2c1 | 114 to 116
O=C1c2ccccc2C(=O)N1Cc1cc2cc(Cl)cc(-c3ccccc3)c2o1 | 163 to 166
C[Si](C)(C)NS(C)(=O)=O | 69 to 74.5
CN1CCN(C2=Nc3ccc(F)cc3Nc3sc4cc(Br)ccc4c32)CC1 | 219 to 221
c1c[nH]c(C(c2ccc[nH]2)C23CC4CC(CC(C4)C2)C3)c1 | 168 to 169

The next lines start with the values.

melting point [°C] | SMILES
218 to 222 | CC(=O)C(=CNc1ccc(C2=NNC(=O)CC2)cc1)C(C)=O
185 to 186 | CCCCCS(=O)(=O)NC(=O)c1ccc2nc(C)n(Cc3ccc(NC)cc3Cl)c2n1
200 | CS(=O)(=O)N(c1cc2c(cc1Oc1ccccc1)C(C#N)CC2)S(C)(=O)=O (stereo unspecified)
256 to 258 | CC1(C)C(=O)Nc2ccc(-c3ccc(C#N)[nH]3)cc21
211 to 212 | CCCc1ccnc2c(=O)[nH]c(-c3cc(S(=O)(=O)N4CCN(C)CC4)ccc3OCC)nc12
83 to 85 | CCO[C@@H](Cc1ccc(OCCN2CCC(C)(C)c3cc(C(=NOC)c4ccc(C(=O)O)cc4)ccc32)cc1)C(=O)O
201 to 202 | CCN1c2ccc(Cl)cc2C=C(C(=O)O)C1C(F)(F)F (stereo unspecified)
193 to 195 | CC(=CC(=O)O)c1ccc(-c2ccc(F)cc2F)cc1
55 to 56 | CCOC(=O)c1oc2cc(Br)ccc2c1C
76.5 to 78 | COc1cccc(C2CCC(O)O2)c1 (stereo unspecified)
234 to 238 | COc1cc(-c2cccc(C=C3SC(N4CCOCC4)=NC3=O)c2)cc(C23CC4CC(CC(C4)C2)C3)c1
212 to 215 | CN1CC[C@@H](c2c(O)cc(O)c3c(=O)cc(-c4ccccc4)oc23)[C@@H]1CO
228 to 230 | COc1cc(N)c(Br)cc1C(=O)NC1CCN(CC2CCN(C(N)=O)CC2)CC1
150 to 152 | COc1ccc(NC(=O)NC2C(=O)Nc3ccccc3N(CCC(C)C)C2=O)cc1 (stereo unspecified)
86 to 87 | N#CCc1ccc(C(=O)C2CC2)cc1
70 to 72 | CC(C)(C)Oc1ccc(CCC(=O)NCCC(=O)O)cc1
106 | COc1cc2c(cc1OC)CN(CC(O)COc1ccc(N)cc1)CC2 (stereo unspecified)
61 to 63 | CCCOC(C)c1ccc(O)cc1 (single isomer, unassigned; (+))
45 to 45.5 | CCOC(=O)c1ccc(C(F)(F)F)c(OC2CCOC2)n1 (stereo unspecified)
120 to 121 | COC(=O)c1ccccc1OCC(O)CN1CCN(c2ccccc2OC)CC1 (stereo unspecified)
80 to 81 | CCC(O)(c1ccc(OCCCN2CCCCC2)cc1)c1cccc(Cl)c1 (stereo unspecified)
122 to 124 | COC(=O)CCCOc1cc(C(C)C)c2c(c1)S(=O)(=O)N(COC(=O)c1ccccc1)C2=O
189 to 198 | COc1cc(C2CCN(C)CC2)ccc1Nc1ncc2ccc(-c3cccc(S(=O)(=O)NC(C)(C)C)c3)n2n1

melting point [°C] | SMILES
101 to 103 | CNC(=C[N+](=O)[O-])SCc1ccc(CN(C)C)o1
63 to 65 | CCC1(C(=O)C=Cc2ccc(OC)c(OC)c2)CC1
74 to 76 | COC(=O)C#CC(=O)c1ccc(SC)cc1
40 to 41 | COc1cc([N+](=O)[O-])cnc1Cl
170 | COc1cc(C(C)C)c(OC(C#N)=CNc2ccccc2)cc1I
192 to 195 | COc1nc(NC(=O)NS(=O)(=O)c2ccccc2C(=O)OC(C)C)nc(OC)n1
75 to 77 | Cc1nn(C)c(C)c1C(=O)NC/C=C\COc1cc(CN2CCCCC2)ccn1
64 to 65 | COC(=O)c1cc(I)cn1C
275 to 280 | CCCn1cc2c(C3C(=O)Nc4ccc(C)cc43)nc(Cl)nc2n1 (stereo unspecified)
181 to 182 | O=C(Nc1ccc(OCCCCl)c2ccccc12)c1cc(F)cc(N2CCCCC2)c1
76 | Cc1csc(C(=O)OC(C)C)c1S(N)(=O)=O
82 | COc1cc(C(=O)CBr)ccc1OC(C)=O
197 to 198 | COc1ccccc1NC(=O)Nc1ccc(CC(=O)NC(CC(C)C)c2ncc(CCC(=O)O)s2)cc1 (stereo unspecified)
136 to 137 | CC(C)(C)OC(=O)N1CCC(c2ccc(N3C[C@H](CN)OC3=O)cc2F)CC1
87 to 89 | CCCc1c(OC(C(=O)OCC)c2ccc(OC)cc2)ccc(C(C)=O)c1O (stereo unspecified)
62 | CCOC(=O)C1=C(C)NC(C)=C(C(=O)OCC)C1c1ccc(OCCCN(C)C)c(OC)c1
147 to 149 | C=C(C)CONC(=O)c1nc(-c2ccc(Cl)c(OC)c2F)cc(N)c1Cl
222 | CCC(=O)OC(c1nc2c(C(F)(F)F)cccc2c(O)c1C(=O)Nc1nccs1)C(C)C (stereo unspecified)
108 to 109 | COc1cc2c(c3c1OC(C)(C)C3)C(c1cccc(N(C)C(N)=O)c1)=NC(C)(C)C2
97 to 98 | CC(C)Cc1nn(C)c(=O)c2cc(Cc3ccccc3)sc12
114 to 115 | COc1cc(/C=C/c2ccc(N(C)C)cc2)cc(OC)c1OC
195 to 203 | CCOc1nc(N)nc(N2CCc3ccccc3CC2)c1C#N
185 to 189 | COC(C)c1nc2c(N)nc3ccccc3c2n1CC(C)C (stereo unspecified)
